Data taken from patent US20230295212A1 (ROME Therapeutics, Inc., priority 2022, published 2023).

target: T1, LINE1 reverse transcriptase (Homo sapiens, UniProt O00370); test: Stable artificial-intron Cis LINE1 reporter assay (HeLa Tet-On 3G, Firefly luciferase); type: cell-based; conditions: HeLa L1 artificial-intron reporter cells, doxycycline 500 ng/mL, 72 h, class symbols
T1 construct: expressed in transfected cells; host or cells: HeLa Tet-On 3G (Takara, cat no 631183)
Experimental: Exemplary compounds, were tested for the ability to inhibit LINE1 reverse transcriptase using a stable artificial-intron Cis LINE1 reporter assay. Assay procedures and results are described below.
A stable HeLa Tet-On 3G (Takara, cat no 631183) cell line expressing a bi-directional inducible LINE1 construct was generated as described in Xie, Y. et al. “Cell division promotes efficient retrotransposition in a stable L1 reporter cell line,” Mobile DNA (2013) 4:10. Single cell clones were screened for high Luciferase expression and the highest expression Firefly expressing clone was chosen for compound testing.
Test compounds were serially diluted in DMSO and spotted in 96-well plates. Subsequently, the HeLa Li artificial-intron reporter cells were plated into the compound-containing wells (8,000 cells/well), and the cells were induced for reporter expression with doxycycline (Sigma-Aldrich cat #D9891) at a final concentration of 500 ng/mL. Luminescence was measured 72 h after plating using the Dual-Glo Luciferase Assay System (Promega cat #E2940) following the manufacturer's instructions. The Firefly Luciferase activity was used to report LINE1 activity.

T1 sequence (O00370 whole entry, looked up): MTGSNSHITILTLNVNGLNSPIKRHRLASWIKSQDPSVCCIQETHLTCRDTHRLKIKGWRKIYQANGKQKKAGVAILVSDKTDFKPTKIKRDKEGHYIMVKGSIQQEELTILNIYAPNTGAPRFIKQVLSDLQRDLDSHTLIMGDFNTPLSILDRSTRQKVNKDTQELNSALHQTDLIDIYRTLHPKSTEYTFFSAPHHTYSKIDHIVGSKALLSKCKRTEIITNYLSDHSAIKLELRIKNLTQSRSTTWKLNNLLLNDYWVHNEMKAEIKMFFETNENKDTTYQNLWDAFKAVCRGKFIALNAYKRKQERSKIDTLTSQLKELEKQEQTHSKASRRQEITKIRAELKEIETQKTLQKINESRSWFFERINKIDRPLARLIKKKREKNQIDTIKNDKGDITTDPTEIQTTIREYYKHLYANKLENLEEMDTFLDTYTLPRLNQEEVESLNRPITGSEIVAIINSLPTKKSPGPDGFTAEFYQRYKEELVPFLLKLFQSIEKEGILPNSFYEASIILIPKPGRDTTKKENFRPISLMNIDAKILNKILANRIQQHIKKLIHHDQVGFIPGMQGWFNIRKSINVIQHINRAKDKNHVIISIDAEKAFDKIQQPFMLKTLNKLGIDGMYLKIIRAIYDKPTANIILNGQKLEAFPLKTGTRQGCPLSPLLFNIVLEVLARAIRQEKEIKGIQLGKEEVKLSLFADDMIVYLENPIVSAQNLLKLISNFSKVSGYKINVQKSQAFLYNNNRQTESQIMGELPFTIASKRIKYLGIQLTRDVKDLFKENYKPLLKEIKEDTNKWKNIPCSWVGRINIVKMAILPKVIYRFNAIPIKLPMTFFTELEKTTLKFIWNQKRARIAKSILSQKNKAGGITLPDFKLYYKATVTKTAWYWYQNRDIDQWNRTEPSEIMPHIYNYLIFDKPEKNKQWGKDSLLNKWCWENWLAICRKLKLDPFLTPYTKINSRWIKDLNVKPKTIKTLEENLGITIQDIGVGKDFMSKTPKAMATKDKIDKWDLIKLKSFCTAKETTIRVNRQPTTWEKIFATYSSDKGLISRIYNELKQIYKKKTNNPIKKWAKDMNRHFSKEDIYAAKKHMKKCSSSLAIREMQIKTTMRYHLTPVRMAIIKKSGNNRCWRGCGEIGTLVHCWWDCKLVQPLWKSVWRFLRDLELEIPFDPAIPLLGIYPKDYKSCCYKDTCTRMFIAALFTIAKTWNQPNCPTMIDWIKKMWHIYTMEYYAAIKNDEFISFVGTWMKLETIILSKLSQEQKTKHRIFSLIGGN

IC50 [nM]	Structure (SMILES)
250 to 1000	Nc1nc(=O)n([C@H]2C[C@H](O)[C@](CO)(C(F)(F)F)O2)cc1F [Compound 66, 4-amino-5-fluoro-1-((2R,4S,5R)-4-hydroxy-5-(hydroxymethyl)-5-(trifluoromethyl)tetrahydrofuran-2-yl)pyrimidin-2(1H)-one]
100 to 250	CC[C@]1(CO)O[C@@H](n2cnc3c(=O)[nH]c(N)nc32)[C@@H](F)[C@@H]1O [Compound 68, 2-amino-9-((2R,3S,4R,5R)-5-ethyl-3-fluoro-4-hydroxy-5-(hydroxymethyl)tetrahydrofuran-2-yl)-1,9-dihydro-6H-purin-6-one]
≤ 50	C=C[C@]1(CO)O[C@@H](n2cnc3c(O)nc(N)nc32)C[C@@H]1O [Compound 69, 2-amino-9-((2R,4S,5R)-4-hydroxy-5-(hydroxymethyl)-5-vinyltetrahydrofuran-2-yl)-1,9-dihydro-6H-purin-6-one]
> 1000	Nc1nc2c(ncn2[C@@H]2O[C@@](CO)(CCl)[C@@H](O)[C@@H]2F)c(=O)[nH]1 [Compound 70, 2-amino-9-((2R,3S,4R,5R)-5-(chloromethyl)-3-fluoro-4-hydroxy-5-(hydroxymethyl)-tetrahydrofuran-2-yl)-1,9-dihydro-6H-purin-6-one]
250 to 1000	Nc1nc(=O)n([C@@H]2O[C@@](CO)(CF)[C@@H](O)[C@@H]2O)cc1F [Compound 72, 4-amino-5-fluoro-1-((2R,3S,4S,5R)-5-(fluoromethyl)-3,4-dihydroxy-5-(hydroxymethyl)tetrahydrofuran-2-yl)pyrimidin-2(1H)-one]
≤ 50	Nc1nc(=O)n([C@@H]2O[C@@](CO)(CCl)[C@@H](O)[C@@H]2O)cc1F [Compound 73, 4-amino-1-((2R,3S,4S,5R)-5-(chloromethyl)-3,4-dihydroxy-5-(hydroxymethyl)tetrahydrofuran-2-yl)-5-fluoropyrimidin-2(1H)-one]
≤ 50	C=C[C@]1(CO)O[C@@H](n2cc(F)c(N)nc2=O)C[C@@H]1O [Compound 74, 4-amino-5-fluoro-1-((2R,4S,5R)-4-hydroxy-5-(hydroxymethyl)-5-vinyltetrahydrofuran-2-yl)pyrimidin-2(1H)-one]
100 to 250	C=C[C@]1(CO)O[C@@H](n2cc(F)c(N)nc2=O)[C@@H](O)[C@@H]1O [Compound 75, 4-amino-1-((2R,3S,4S,5R)-3,4-dihydroxy-5-(hydroxymethyl)-5-vinyltetrahydrofuran-2-yl)-5-fluoropyrimidin-2(1H)-one]
≤ 50	C=C[C@]1(CO)O[C@@H](n2cc(F)c(N)nc2=O)[C@@H](F)[C@@H]1O [Compound 76, 4-amino-1-[(2R,3S,4R,5R)-5-ethenyl-3-fluoro-4-hydroxy-5-(hydroxymethyl)oxolan-2-yl]-5-fluoropyrimidin-2-one]
≤ 50	CC[C@]1(CO)O[C@@H](n2cc(F)c(N)nc2=O)[C@@H](F)[C@@H]1O [Compound 77, 4-amino-1-[(2R,3S,4R,5R)-5-ethyl-3-fluoro-4-hydroxy-5-(hydroxymethyl)oxolan-2-yl]-5-fluoropyrimidin-2-one]
50 to 100	CC[C@]1(CO)O[C@@H](n2cc(F)c(N)nc2=O)[C@@H](O)[C@@H]1O [Compound 78, 4-amino-1-((2R,3S,4S,5R)-5-ethyl-3,4-dihydroxy-5-(hydroxymethyl)tetrahydrofuran-2-yl)-5-fluoropyrimidin-2(1H)-one]
100 to 250	C=C[C@]1(CO)O[C@@H](n2cnc3c(N)nc(F)nc32)[C@@H](F)[C@@H]1O [Compound 80, (2R,3R,4S,5R)-5-(6-amino-2-fluoropurin-9-yl)-2-ethenyl-4-fluoro-2-(hydroxymethyl)oxolan-3-ol]
100 to 250	CC[C@]1(CO)O[C@@H](n2cnc3c(N)nc(F)nc32)[C@@H](F)[C@@H]1O [Compound 81, (2R,3R,4S,5R)-5-(6-amino-2-fluoropurin-9-yl)-2-ethyl-4-fluoro-2-(hydroxymethyl)oxolan-3-ol]
≤ 50	CC[C@]1(CO)O[C@@H](n2cc(F)c(N)nc2=O)C[C@@H]1O [Compound 82, 4-amino-1-((2R,4S,5R)-5-ethyl-4-hydroxy-5-(hydroxymethyl)tetrahydrofuran-2-yl)-5-fluoropyrimidin-2(1H)-one]
> 1000	Nc1nc2c(ncn2[C@@H]2O[C@@](CO)(CF)[C@@H](O)[C@@H]2F)c(=O)[nH]1 [Compound 83, 2-amino-9-((2R,3S,4R,5R)-3-fluoro-5-(fluoromethyl)-4-hydroxy-5-(hydroxymethyl)tetrahydrofuran-2-yl)-1,9-dihydro-6H-purin-6-one]
> 1000	Nc1nc(F)nc2c1ncn2[C@@H]1O[C@@](CO)(CF)[C@@H](O)[C@@H]1F [Compound 84]
50 to 100	Nc1nc(=O)n([C@@H]2O[C@@](CO)(CF)[C@@H](O)[C@@H]2F)cc1F [Compound 85, 4-amino-5-fluoro-1-[(2R,3S,4R,5R)-3-fluoro-5-(fluoromethyl)-4-hydroxy-5-(hydroxymethyl)oxolan-2-yl] pyrimidin-2-one]
≤ 50	Nc1nc(=O)n([C@@H]2O[C@@](CO)(CBr)[C@@H](O)[C@@H]2F)cc1F [Compound 86, 4-amino-1-[(2R,3S,4R,5R)-5-(bromomethyl)-3-fluoro-4-hydroxy-5-(hydroxymethyl)oxolan-2-yl]-5-fluoropyrimidin-2-one]
≤ 50	Nc1nc(=O)n([C@H]2C[C@H](O)[C@](CO)(CBr)O2)cc1F [Compound 88, 4-amino-1-((2R,4S,5R)-5-(bromomethyl)-4-hydroxy-5-(hydroxymethyl)tetrahydrofuran-2-yl)-5-fluoropyrimidin-2(1H)-one]
≤ 50	[N-]=[N+]=N[C@]1(CO)O[C@@H](c2ccc3c(N)ncnn23)C[C@@H]1O [Compound 92, (2R,3S,5R)-5-(4-aminopyrrolo[2,1-f][1,2,4]triazin-7-yl)-2-azido-2-(hydroxymethyl)tetrahydrofuran-3-ol]
≤ 50	C[C@]1(CO)O[C@@H](n2ccc(N)nc2=O)C[C@@H]1O [Compound 106, 4-amino-1-((2R,4S,5R)-4-hydroxy-5-(hydroxymethyl)-5-methyltetrahydrofuran-2-yl)pyrimidin-2(1H)-one]
≤ 50	C#C[C@]1(CO)O[C@@H](n2cc(F)c(N)nc2=O)C[C@@H]1O [Compound 107, 4-amino-1-((2R,4S,5R)-5-ethynyl-4-hydroxy-5-(hydroxymethyl)tetrahydrofuran-2-yl)-5-fluoropyrimidin-2(1H)-one]
50 to 100	[N-]=[N+]=N[C@]1(CO)O[C@@H](n2cnc3c(=O)[nH]c(N)nc32)C[C@@H]1O [Compound 108, 2-amino-9-((2R,4S,5R)-5-azido-4-hydroxy-5-(hydroxymethyl)tetrahydrofuran-2-yl)-1,9-dihydro-6H-purin-6-one]
≤ 50	C=C[C@]1(CO)O[C@@H](n2cnc3c(N)nc(F)nc32)C[C@@H]1O [Compound 109, (2R,3S,5R)-5-(6-amino-2-fluoro-9H-purin-9-yl)-2-(hydroxymethyl)-2-vinyltetrahydrofuran-3-ol]
250 to 1000	Nc1ccn([C@H]2C[C@H](O)[C@](CO)(C(F)F)O2)c(=O)n1 [Compound 110, 4-amino-1-((2R,4S,5R)-5-(difluoromethyl)-4-hydroxy-5-(hydroxymethyl)-tetrahydrofuran-2-yl)pyrimidin-2(1H)-one]
≤ 50	Nc1ccn([C@@H]2O[C@H](CO)[C@@H](O)C2(F)F)c(=O)n1 [Compound 111, 4-amino-1-((2R,4R,5R)-3,3-difluoro-4-hydroxy-5-(hydroxymethyl)tetrahydrofuran-2-yl)pyrimidin-2(1H)-one]
≤ 50	C#C[C@]1(CO)O[C@@H](n2cc(F)c(N)nc2=O)[C@@H](F)[C@@H]1O [Compound 112, 4-amino-1-((2R,3S,4R,5R)-5-ethynyl-3-fluoro-4-hydroxy-5-(hydroxymethyl)tetrahydrofuran-2-yl)-5-fluoropyrimidin-2(1H)-one]
50 to 100	Nc1ccn([C@@H]2O[C@@](CO)(CF)[C@@H](O)[C@@H]2F)c(=O)n1 [Compound 113, 4-amino-1-((2R,3S,4R,5R)-3-fluoro-5-(fluoromethyl)-4-hydroxy-5-(hydroxymethyl)-tetrahydrofuran-2-yl)pyrimidin-2(1H)-one]

same assay, conditions: HeLa L1 artificial-intron reporter cells, doxycycline 500 ng/mL, 72 h, numeric bounds

IC50 [nM]	Structure (SMILES)
> 30000	Nc1nc(=O)n([C@H]2C[C@H](O)[C@](CO)(CCl)O2)cc1C(F)(F)F [Compound 71, 4-amino-1-((2R,4S,5R)-5-(chloromethyl)-4-hydroxy-5-(hydroxymethyl)tetrahydrofuran-2-yl)-5-(trifluoromethyl)pyrimidin-2(1H)-one]
> 30000	Nc1ncnn2c([C@H]3C[C@H](O)[C@](CO)(CF)O3)ccc12 [Compound 79, (2R,3S,5R)-5-(4-aminopyrrolo[2,1-f] [1,2,4]triazin-7-yl)-2-(fluoromethyl)-2-(hydroxymethyl)tetrahydrofuran-3-ol]
> 30000	Nc1nc2c(ncn2[C@@H]2O[C@@](CO)(CCl)[C@@H](O)[C@@H]2O)c(=O)[nH]1 [Compound 94, 2-amino-9-[(2R,3S,4S,5R)-5-(chloromethyl)-3,4-dihydroxy-5-(hydroxymethyl)oxolan-2-yl]-1H-purin-6-one]
> 30000	Nc1nc(=O)n([C@@H]2O[C@@](CO)(C(F)(F)F)[C@@H](O)[C@@H]2O)cc1F [Compound 95, 4-amino-1-((2R,3S,4S,5R)-3,4-dihydroxy-5-(hydroxymethyl)-5-(trifluoromethyl)tetrahydrofuran-2-yl)-5-fluoropyrimidin-2(1H)-one]
